One assay has as its system Olfr740. The assay is described as follows: cell-based cAMP assay (HTRF), HEK293T co-transfected with Gαolf. The conditions noted are these: increasing concentrations; FIGS. 5A-5D. Also noted: species or system mouse. From the text: (§1) The activity of candidate mouse receptors Olfr740 (SEQ ID NO: 1 and SEQ ID NO: 2), Olfr743 (SEQ ID NO: 5 and SEQ ID NO: 6), and Olfr746 (SEQ ID NO: 37 and SEQ ID NO: 38) to both indole and skatole malodors were confirmed in cell-based cAMP assays. In FIGS. 5A and 5B, FLAG Rho-tagged (SEQ ID 18) Olfr743 (SEQ ID NO: 6) and Olfr740 (SEQ ID NO: 2) cDNA sequences were co-transfected with Gαolf (SEQ ID NO: 21) and exposed to increasing concentrations of indole (left) or skatole (right). FIGS. 5C and 5D are repeat experiments showing similar activity of Olfr740 (SEQ ID NO: 2) with Olfr743 (SEQ ID NO: 6) with indole and skatole. In FIG. 5E, the FLAG Rho-tagged (SEQ ID 18) Olfr746 (SEQ ID NO: 38) cDNA sequence was co-transfected with Gαolf (SEQ ID NO: 21) and exposed to increasing concentrations of indole or skatole. Odorant-induced activity was detected by measuring cAMP levels in the cytosol using the HTRF approach (CisBio kit). […] Co-transfection of HEK cells with Gαolf (SEQ ID NO: 21) alone (no receptor) were used as controls for non-specific activity (control). Activity is defined as the baseline corrected HTRF ratios normalized to the highest signal in the experiment. […] All three receptors show specific dose dependent activity to the malodor compounds and, as such, validate the process for identifying receptors for these compounds. Mouse receptors Olfr740 (SEQ ID NO: 1 and SEQ ID NO: 2) and Olfr743 (SEQ ID NO: 5 and SEQ ID NO: 6) were identified from isolated olfactory neurons that responded to both indole and skatole. Mouse receptor Olfr746 (SEQ ID NO: 37 and SEQ ID NO: 38) was identified in silico by database mining using Olfr740 (SEQ ID NO: 2) and Olfr743 (SEQ ID NO: 6) as query sequences. The receptors are modified at their N-terminus with the FLAG tag and the first 20 amino acids of the bovine rhodopsin receptor (SEQ ID 18), transiently expressed in HEK 293T cells, and stimulated separately with indole and skatole to confirm their identity as bona fide indole/skatole receptors. Co-expression of the human G alpha subunit Gαolf (SEQ ID NO: 21) activates the Gs transduction pathway that leads to an internal cAMP increase upon binding to the appropriate ligand.

The next assay deals with Olfr746. The assay is described as above. Set-up: species or system mouse. To be noted: increasing concentrations; FIG. 5E.
Text: as §1

Consider `c1ccc2[nH]ccc2c1` [indole], for which the “receptor activity (cAMP, HTRF)” value with Olfr740 and in the assay on Olfr746 was “dose-dependent increase of receptor activity” throughout.
Take `Cc1c[nH]c2ccccc12` [skatole, 3-methyl indole]: the “receptor activity (cAMP, HTRF)” value in the assay with Olfr740 and in the assay with Olfr746 was “dose-dependent increase of receptor activity” each time.

Values taken from patent US9914760B2, “Methods of identifying, isolating and using odorant and aroma receptors” (Firmenich SA, priority 2013, dated 2018).
